Measurements: article PMC4156793 (Vascular Cell, 2014)
Marks after values point to notes of the source that are not given here.

Assays:
KIT = biological target: T1, KIT (Homo sapiens, UniProt P10721); assay: In vitro kinase assay KIT; assay type: biochemical
T1 construct: purchased Carna Biosciences, Inc. (Kobe, Japan)

HUVECs [1] = assay: VEGF-induced proliferation of HUVECs; assay type: cell-based; details: Homo sapiens, HUVEC, 72 h; VEGF 20 ng/mL, 3 days, WST-1
Protocol: (§1) Tumor cells were plated at 1 to 2 × 10^3 cells/well on 96-well plates in 0.1 ml of RPMI 1640 containing 10% FBS. […] The HUVEC proliferation assay were performed by a method described previously. […] After incubation for 3 days, cell viability was determined by measuring the absorbance of WST-1 reagent (DOJINDO, Kumamoto, Japan). Percent inhibition of cell growth was determined by the formula below: Inhibition (%) = Mean value of OD of control wells - OD of treated wells * 100/Mean value of OD of control wells. Each value is expressed as the mean. […] All experiments were done in either duplicate or quadruplicate.

KP-1/VEGF transfectants = assay: In vitro growth of KP-1/VEGF transfectants; assay type: cell-based; details: Homo sapiens
Protocol: as §1

[2] = tested on: DU145 (Prostate) xenograft; assay: Subcutaneous xenograft model, DU145; assay type: in vivo, mouse
Protocol: (§2) Tumor cells were injected subcutaneously into the right flank region of 7-week-old nude mice. […] Tumor diameters were measured with a vernier caliper and body weight was measured twice weekly. The tumor volume (mm^3) was calculated using the formula: length (mm) × width (mm)^2 × 1/2. […] When the tumor volume was reduced, the ΔT/C values were calculated by the following formula: ΔT/C (%) = (TVn - TV1)/TV1 × 100, where TVn is the tumor volume of treated mice at day n. The number of mice is ten for control group in Table 1 and five for each group in other experiments. Mice in control group were treated with vehicle.

DU145 (Prostate) = assay: Tumor cell proliferation assay (MTT), DU145; assay type: cell-based; details: Homo sapiens, DU-145, read-out: IC50 in vitro anti-proliferative activity
Protocol: (§3) Tumor cells were plated at 1 to 2 × 10^3 cells/well on 96-well plates in 0.1 ml of RPMI 1640 containing 10% FBS. […] The HUVEC proliferation assay were performed by a method described previously. […] Percent inhibition of cell growth was determined by the formula below: Inhibition (%) = Mean value of OD of control wells - OD of treated wells * 100/Mean value of OD of control wells. Each value is expressed as the mean. […] All experiments were done in either duplicate or quadruplicate.

FGFR2 = biological target: T2, FGFR2 (Homo sapiens, UniProt P21802); assay: In vitro kinase assay FGFR2; assay type: biochemical
T2 construct: purchased Carna Biosciences, Inc. (Kobe, Japan)
Protocol: (§4) Tyrosine kinase assays were performed by an ELISA and Off-chip Mobility Shift Assay (MSA) by Carna Biosciences, Inc. (Kobe, Japan).

H460 (Lung) xenograft = assay: Subcutaneous xenograft model, H460; assay type: in vivo, mouse
Protocol: as §2

Colo205 (Colon) = assay: Tumor cell proliferation assay (MTT), Colo205; assay type: cell-based; details: Homo sapiens, COLO 205, read-out: IC50 in vitro anti-proliferative activity
Protocol: as §3

[3] = Tolerability in tumor-bearing nude mice; assay type: in vivo
Protocol: as §2

HUVECs [4] = assay: FGF-2 induced sandwich tube formation (sTF) of HUVECs; assay type: cell-based; details: Homo sapiens, HUVEC, 96 h; sTF assay, EGF 10 ng/mL with FGF2 20 ng/ml, 4 days
Protocol: (§5) In vitro sandwich tube formation (sTF) assay, HUVECs in SFM containing EGF (10 ng/mL) with VEGF (20 ng/mL) or FGF2 (20 ng/ml) were plated onto the 1st layer of collagen gel (Nitta Gelatin, Tokyo, Japan) at 1.0 × 10^5 cells in 24-well plates and a 2nd layer of collagen gel was added onto the HUVECs. […] After 4 days, MTT solution was added and photomicrographs of tube formation were taken with a light microscope. The tube length of capillaries was measured using image analysis (Angiogenesis Image Analyzer, ver. 1.04; Kurabo, Osaka, Japan).

A431 (Epidermoid) = assay: Tumor cell proliferation assay (MTT), A431; assay type: cell-based; details: Homo sapiens, A-431, read-out: IC50 in vitro anti-proliferative activity
Protocol: as §3

[5] = tested on: SK-OV-3 (Ovary) xenograft; assay: Subcutaneous xenograft model, SK-OV-3; assay type: in vivo, mouse; details: SK-OV-3 xenograft
Protocol: as §2

SK-OV-3 (Ovary) = assay: Tumor cell proliferation assay (MTT), SK-OV-3; assay type: cell-based; details: Homo sapiens, read-out: IC50 in vitro anti-proliferative activity
Protocol: as §3

[6] = tested on: MIApaca-II (Pancreas) xenograft; assay: Subcutaneous xenograft model, MIApaca-II; assay type: in vivo, mouse
Protocol: as §2

FGFR1 = biological target: T3, FGFR1 (Homo sapiens, UniProt P11362); assay: In vitro kinase assay FGFR1; assay type: biochemical
T3 construct: purchased Carna Biosciences, Inc. (Kobe, Japan)
T3 sequence (P11362 22-822): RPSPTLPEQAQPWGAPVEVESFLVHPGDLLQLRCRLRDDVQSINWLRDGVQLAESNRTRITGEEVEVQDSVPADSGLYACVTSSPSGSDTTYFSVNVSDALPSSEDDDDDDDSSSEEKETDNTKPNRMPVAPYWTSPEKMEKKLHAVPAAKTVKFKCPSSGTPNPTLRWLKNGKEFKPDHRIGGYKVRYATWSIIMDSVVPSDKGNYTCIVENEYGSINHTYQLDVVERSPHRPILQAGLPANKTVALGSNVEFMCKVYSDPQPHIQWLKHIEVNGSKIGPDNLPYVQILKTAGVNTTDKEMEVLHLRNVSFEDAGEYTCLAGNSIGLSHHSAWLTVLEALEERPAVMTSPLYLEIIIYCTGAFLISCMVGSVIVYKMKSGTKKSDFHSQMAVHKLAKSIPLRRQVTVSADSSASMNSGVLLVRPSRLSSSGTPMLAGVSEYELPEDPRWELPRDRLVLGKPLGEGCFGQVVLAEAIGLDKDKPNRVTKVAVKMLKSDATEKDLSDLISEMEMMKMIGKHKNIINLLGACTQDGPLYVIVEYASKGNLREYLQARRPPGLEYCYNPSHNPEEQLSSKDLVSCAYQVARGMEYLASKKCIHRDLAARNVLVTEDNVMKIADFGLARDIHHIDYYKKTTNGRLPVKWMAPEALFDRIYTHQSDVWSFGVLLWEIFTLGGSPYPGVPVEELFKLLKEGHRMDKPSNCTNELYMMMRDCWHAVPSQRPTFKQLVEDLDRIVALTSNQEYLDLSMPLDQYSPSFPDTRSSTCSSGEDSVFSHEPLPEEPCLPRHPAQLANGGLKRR
Protocol: as §4

MIApaca-II (Pancreas) = assay: Tumor cell proliferation assay (MTT), MIApaca-II; assay type: cell-based; details: Homo sapiens, read-out: IC50 in vitro anti-proliferative activity
Protocol: as §3

[7] = tested on: A431 (Epidermoid) xenograft; assay: Subcutaneous xenograft model, A431; assay type: in vivo, mouse
Protocol: as §2

[8] = tested on: MDA-MB 435 (Melanoma) xenograft; assay: Subcutaneous xenograft model, MDA-MB 435; assay type: in vivo, mouse; details: MDA-MB 435 xenograft
Protocol: as §2

MDA-MB 435 (Melanoma) = assay: Tumor cell proliferation assay (MTT), MDA-MB 435; assay type: cell-based; details: Homo sapiens, read-out: IC50 in vitro anti-proliferative activity
Protocol: as §3

HUVECs [9] = assay: FGF-2 induced proliferation of HUVECs; assay type: cell-based; details: Homo sapiens, HUVEC, 72 h; FGF2 20 ng/mL, 3 days, WST-1
Protocol: as §1

SEKI model = assay: Subcutaneous xenograft model, SEKI; assay type: in vivo, mouse; details: 100 mg/kg orally twice daily for 7 days
Protocol: as §2
Each group consisted of 5 mice. […] The relationship between the antitumor activity and MVD is shown in (B), and that between the antitumor activity and the % of pericyte coverage of vessels is shown in (C). Each symbol (○) indicates the mean of MVD or pericyte coverage in each tumor xenograft model. (D) Vascular score in the lenvatinib-sensitive and –relatively resistant groups. The vascular score was the sum of the MVD and pericyte coverage scores.

FGFR3 = biological target: T4, FGFR3 (Homo sapiens, UniProt P22607); assay: In vitro kinase assay FGFR3; assay type: biochemical
T4 construct: purchased Carna Biosciences, Inc. (Kobe, Japan)
Protocol: as §4

[10] = tested on: Colo205 (Colon) xenograft; assay: Subcutaneous xenograft model, Colo205; assay type: in vivo, mouse
Protocol: as §2

VEGFR1 (FLT1) = biological target: T5, VEGFR1 (FLT1) (Homo sapiens, UniProt P17948); assay: In vitro kinase assay VEGFR1 (FLT1); assay type: biochemical
T5 construct: purchased Carna Biosciences, Inc. (Kobe, Japan)
T5 sequence (P17948 27-1338): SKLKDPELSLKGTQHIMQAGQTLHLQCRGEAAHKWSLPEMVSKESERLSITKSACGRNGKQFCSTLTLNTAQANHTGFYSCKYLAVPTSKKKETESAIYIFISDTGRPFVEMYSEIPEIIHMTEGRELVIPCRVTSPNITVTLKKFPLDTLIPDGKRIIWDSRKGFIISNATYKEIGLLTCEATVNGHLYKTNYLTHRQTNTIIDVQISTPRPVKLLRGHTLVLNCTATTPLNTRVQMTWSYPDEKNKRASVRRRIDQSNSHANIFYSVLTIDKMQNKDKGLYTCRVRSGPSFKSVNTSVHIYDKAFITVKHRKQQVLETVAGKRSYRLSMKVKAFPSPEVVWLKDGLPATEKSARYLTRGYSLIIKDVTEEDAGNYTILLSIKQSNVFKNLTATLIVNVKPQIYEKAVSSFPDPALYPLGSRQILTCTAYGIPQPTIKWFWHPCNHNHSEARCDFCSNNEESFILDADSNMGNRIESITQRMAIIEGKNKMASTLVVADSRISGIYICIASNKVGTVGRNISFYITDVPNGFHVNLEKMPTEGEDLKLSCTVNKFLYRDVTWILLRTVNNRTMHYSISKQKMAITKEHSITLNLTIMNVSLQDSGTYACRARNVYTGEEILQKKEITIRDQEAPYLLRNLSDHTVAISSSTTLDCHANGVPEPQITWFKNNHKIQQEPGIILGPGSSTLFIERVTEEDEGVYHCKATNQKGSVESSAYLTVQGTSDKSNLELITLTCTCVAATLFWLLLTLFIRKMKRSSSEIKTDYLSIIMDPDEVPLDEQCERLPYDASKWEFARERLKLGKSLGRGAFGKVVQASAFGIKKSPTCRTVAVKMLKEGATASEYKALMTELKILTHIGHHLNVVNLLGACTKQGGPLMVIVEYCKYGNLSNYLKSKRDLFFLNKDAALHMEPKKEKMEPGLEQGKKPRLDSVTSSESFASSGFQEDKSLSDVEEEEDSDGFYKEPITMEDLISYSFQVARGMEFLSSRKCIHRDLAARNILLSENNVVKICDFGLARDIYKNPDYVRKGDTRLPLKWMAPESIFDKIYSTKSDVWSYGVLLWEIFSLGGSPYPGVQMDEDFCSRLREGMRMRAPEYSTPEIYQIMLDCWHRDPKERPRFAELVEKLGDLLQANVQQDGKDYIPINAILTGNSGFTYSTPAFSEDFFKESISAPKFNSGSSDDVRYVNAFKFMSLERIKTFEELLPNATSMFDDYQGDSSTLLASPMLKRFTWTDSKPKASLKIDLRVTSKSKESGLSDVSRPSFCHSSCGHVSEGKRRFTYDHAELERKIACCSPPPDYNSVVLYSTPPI
Protocol: as §4

VEGFR3 (FLT4) = biological target: T6, VEGFR3 (FLT4) (Homo sapiens, UniProt P35916); assay: In vitro kinase assay VEGFR3 (FLT4); assay type: biochemical
T6 construct: purchased Carna Biosciences, Inc. (Kobe, Japan)
T6 sequence (P35916 25-1363): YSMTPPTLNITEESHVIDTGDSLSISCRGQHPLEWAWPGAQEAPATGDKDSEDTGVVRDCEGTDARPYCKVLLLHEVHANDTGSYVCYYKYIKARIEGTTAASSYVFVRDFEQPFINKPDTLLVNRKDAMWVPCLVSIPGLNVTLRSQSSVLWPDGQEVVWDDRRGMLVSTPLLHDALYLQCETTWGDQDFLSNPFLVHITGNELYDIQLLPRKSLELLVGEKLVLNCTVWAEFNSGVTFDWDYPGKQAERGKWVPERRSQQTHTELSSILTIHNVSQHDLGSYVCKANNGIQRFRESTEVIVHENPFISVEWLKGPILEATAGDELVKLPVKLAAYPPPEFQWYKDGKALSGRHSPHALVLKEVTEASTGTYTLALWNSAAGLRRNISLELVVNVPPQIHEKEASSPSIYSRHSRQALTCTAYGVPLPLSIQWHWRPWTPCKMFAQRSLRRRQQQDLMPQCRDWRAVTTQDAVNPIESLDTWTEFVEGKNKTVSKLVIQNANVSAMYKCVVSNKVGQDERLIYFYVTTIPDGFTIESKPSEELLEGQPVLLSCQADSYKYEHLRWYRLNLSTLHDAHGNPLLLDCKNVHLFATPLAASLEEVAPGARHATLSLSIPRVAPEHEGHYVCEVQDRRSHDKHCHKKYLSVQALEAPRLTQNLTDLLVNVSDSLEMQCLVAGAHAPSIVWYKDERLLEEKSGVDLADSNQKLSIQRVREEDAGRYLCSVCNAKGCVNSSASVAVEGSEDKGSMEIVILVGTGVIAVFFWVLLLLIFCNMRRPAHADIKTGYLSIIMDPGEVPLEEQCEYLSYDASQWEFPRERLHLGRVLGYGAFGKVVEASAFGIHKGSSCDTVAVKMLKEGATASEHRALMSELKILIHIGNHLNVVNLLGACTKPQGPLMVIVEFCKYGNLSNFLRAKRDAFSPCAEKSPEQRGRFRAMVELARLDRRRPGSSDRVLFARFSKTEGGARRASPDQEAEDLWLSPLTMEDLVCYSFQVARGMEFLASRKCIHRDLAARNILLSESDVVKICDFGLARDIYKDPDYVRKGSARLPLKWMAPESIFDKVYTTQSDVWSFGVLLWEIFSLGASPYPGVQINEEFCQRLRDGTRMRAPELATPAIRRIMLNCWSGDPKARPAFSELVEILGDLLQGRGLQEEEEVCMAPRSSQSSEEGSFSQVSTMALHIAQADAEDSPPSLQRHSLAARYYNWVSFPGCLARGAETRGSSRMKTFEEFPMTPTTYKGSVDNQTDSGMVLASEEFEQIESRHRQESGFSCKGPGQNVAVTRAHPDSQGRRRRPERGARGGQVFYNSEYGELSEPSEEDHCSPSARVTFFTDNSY
Protocol: as §4

HUVECs [11] = assay: VEGF-induced sandwich tube formation (sTF) of HUVECs; assay type: cell-based; details: Homo sapiens, HUVEC, 96 h; sTF assay, EGF 10 ng/mL with VEGF 20 ng/mL, 4 days
Protocol: as §5

H460 (Lung) = assay: Tumor cell proliferation assay (MTT), H460; assay type: cell-based; details: Homo sapiens, NCI-H460; read-out: IC50 in vitro anti-proliferative activity
Protocol: as §3

[12] = tested on: VEGF-driven in vivo angiogenesis (KP-1/VEGF transfectants); assay: Mouse dorsal air sac (DAS) assay, KP-1/VEGF; details: 100 and 300 mg/kg, orally once daily for 4 days
Protocol: (§6) An in vivo angiogenesis assay in mice was performed as described previously with minor changes. Millipore chambers (Millipore, Bedford, MA) were packed with 1.0 × 10^7 KP-1 mock, KP-1/VEGF or KP-1/FGF transfectants and transplanted into the dorsal air sac of C57BL/6 mice (n = 3–5 each, with experiments performed in triplicate). For a pseudo-operation, collagen I gel was injected into the Millipore chambers. Photographs were taken 4 days after implantation.
(§7) (A) In vivo angiogenesis in mouse DAS assay. Angiogenesis was induced by overexpressed human VEGF121 (KP-1/VEGF) or mouse FGF4 (KP-1/FGF) in human pancreatic cancer KP-1 cells at the mouse dorsal skin. Representative photographs are shown. […] Compounds were administered orally once daily for 4 days at the indicated doses. Data are the mean ± std. *: p < 0.05 and **: p < 0.01 compared to vehicle.

[13] = tested on: FGF-driven in vivo angiogenesis (KP-1/FGF transfectants); assay: Mouse dorsal air sac (DAS) assay, KP-1/FGF; details: 100 mg/kg, orally once daily for 4 days
Protocol: as §6, §7

[14] = tested on: FGFR-driven proliferation; details: read-out: IC50, FGFR-driven proliferation in cell assays; cited from earlier work
[15] = 1 mg/kg orally twice daily for 28 days
[16] = 3 mg/kg orally twice daily for 28 days
[17] = 10 mg/kg orally twice daily for 28 days
[18] = 30 mg/kg orally twice daily for 28 days
[19] = 100 mg/kg orally twice daily for 28 days
[20] = 1 mg/kg orally twice daily for 14 days
[21] = 3 mg/kg orally twice daily for 14 days
[22] = 10 mg/kg orally twice daily for 14 days
[23] = 30 mg/kg orally twice daily for 14 days
[24] = 100 mg/kg orally twice daily for 14 days

T1 sequence (P10721 26-976): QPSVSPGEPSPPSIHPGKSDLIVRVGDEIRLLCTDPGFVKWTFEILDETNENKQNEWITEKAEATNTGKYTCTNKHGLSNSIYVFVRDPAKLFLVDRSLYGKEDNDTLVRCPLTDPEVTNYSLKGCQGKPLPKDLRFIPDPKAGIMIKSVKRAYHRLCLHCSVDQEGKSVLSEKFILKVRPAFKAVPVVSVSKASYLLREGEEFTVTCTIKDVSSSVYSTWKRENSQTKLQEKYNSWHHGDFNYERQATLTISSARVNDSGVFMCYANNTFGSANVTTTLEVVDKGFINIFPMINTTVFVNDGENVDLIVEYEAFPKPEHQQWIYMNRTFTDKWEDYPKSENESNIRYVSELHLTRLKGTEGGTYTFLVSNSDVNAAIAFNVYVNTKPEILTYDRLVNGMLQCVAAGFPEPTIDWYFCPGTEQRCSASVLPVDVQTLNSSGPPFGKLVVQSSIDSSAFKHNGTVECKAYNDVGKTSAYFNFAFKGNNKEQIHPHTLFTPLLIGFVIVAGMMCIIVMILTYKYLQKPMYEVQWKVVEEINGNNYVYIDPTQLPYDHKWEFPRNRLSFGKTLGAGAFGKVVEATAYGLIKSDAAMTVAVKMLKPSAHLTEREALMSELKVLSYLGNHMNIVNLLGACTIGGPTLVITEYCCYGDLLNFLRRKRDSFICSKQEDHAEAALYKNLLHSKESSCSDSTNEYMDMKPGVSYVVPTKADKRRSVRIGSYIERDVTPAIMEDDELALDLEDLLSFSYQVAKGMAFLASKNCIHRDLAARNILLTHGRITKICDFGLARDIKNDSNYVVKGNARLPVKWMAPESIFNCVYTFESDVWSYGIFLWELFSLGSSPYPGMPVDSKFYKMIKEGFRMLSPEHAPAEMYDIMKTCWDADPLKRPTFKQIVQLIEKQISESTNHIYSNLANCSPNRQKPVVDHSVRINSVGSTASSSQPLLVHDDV

COc1cc2nccc(Oc3ccc(NC(=O)NC4CC4)c(Cl)c3)c2cc1C(N)=O [lenvatinib, 4-[3-Chloro-4-(N’-cyclopropylureido)phenoxy]-7-methoxyquinoline-6-carboxamide]
Ki (KIT): 11 nM | IC50 (HUVECs [1]): 3.4 nM | IC50 (KP-1/VEGF transfectants): 19600 nM | ΔTV (%) lenvatinib (mg/kg) 1 [2, 15]: -7.5* % | ΔTV (%) lenvatinib (mg/kg) 3 [2, 16]: -42.2* % | ΔTV (%) lenvatinib (mg/kg) 10 [2, 17]: -65.4* % | ΔTV (%) lenvatinib (mg/kg) 30 [2, 18]: -72.0* % | ΔTV (%) lenvatinib (mg/kg) 100 [2, 19]: -78.6* % | IC50 (DU145 (Prostate)): 30800 nM | Ki (FGFR2): 8.2 nM | ΔTV (%) lenvatinib (mg/kg) 1 (H460 (Lung) xenograft; [20]): 65.4% | ΔTV (%) lenvatinib (mg/kg) 3 (H460 (Lung) xenograft; [21]): 34.9* % | ΔTV (%) lenvatinib (mg/kg) 10 (H460 (Lung) xenograft; [22]): 16.3* % | ΔTV (%) lenvatinib (mg/kg) 30 (H460 (Lung) xenograft; [23]): 16.4* % | ΔTV (%) lenvatinib (mg/kg) 100 (H460 (Lung) xenograft; [24]): -0.8* % | IC50 (Colo205 (Colon)): 27500 nM | Losses of body weights ([3]; 100 mg/kg twice daily for 4 weeks, observed in 3 out of 7 models): < 10% | MTD at 4 weeks ([3]; mouse, in vivo, oral, tumor xenograft models, read-out: Maximum tolerated dose (MTD)): 100 mg/kg | IC50 (HUVECs [4]): 590 nM | IC50 (A431 (Epidermoid)): 30800 nM | ΔTV (%) lenvatinib (mg/kg) 1 [5, 20]: 52.3* % | ΔTV (%) lenvatinib (mg/kg) 3 [5, 21]: 39.6* % | ΔTV (%) lenvatinib (mg/kg) 10 [5, 22]: 12.2* % | ΔTV (%) lenvatinib (mg/kg) 30 [5, 23]: 8.3* % | ΔTV (%) lenvatinib (mg/kg) 100 [5, 24]: -15.6* % | IC50 (SK-OV-3 (Ovary)): 26400 nM | ΔTV (%) lenvatinib (mg/kg) 1 [6, 20]: 56.1* % | ΔTV (%) lenvatinib (mg/kg) 3 [6, 21]: 49.9* % | ΔTV (%) lenvatinib (mg/kg) 10 [6, 22]: 30.1* % | ΔTV (%) lenvatinib (mg/kg) 30 [6, 23]: 15.3* % | ΔTV (%) lenvatinib (mg/kg) 100 [6, 24]: 12.5* % | Ki (FGFR1): 22 nM | IC50 (MIApaca-II (Pancreas)): 33800 nM | ΔTV (%) lenvatinib (mg/kg) 1 [7, 20]: 41.7% | ΔTV (%) lenvatinib (mg/kg) 3 [7, 21]: 29.4* % | ΔTV (%) lenvatinib (mg/kg) 10 [7, 22]: 0.0* % | ΔTV (%) lenvatinib (mg/kg) 30 [7, 23]: -7.5* % | ΔTV (%) lenvatinib (mg/kg) 100 [7, 24]: -32.9* % | ΔTV (%) lenvatinib (mg/kg) 1 [8, 15]: 55.7* % | ΔTV (%) lenvatinib (mg/kg) 3 [8, 16]: 56.9* % | ΔTV (%) lenvatinib (mg/kg) 10 [8, 17]: 40.2* % | ΔTV (%) lenvatinib (mg/kg) 30 [8, 18]: 21.2* % | ΔTV (%) lenvatinib (mg/kg) 100 [8, 19]: 25.7* % | IC50 (MDA-MB 435 (Melanoma)): 24200 nM | IC50 (HUVECs [9]): 410 nM | Antitumor activity, SEKI model (SEKI model): no effect | Ki (FGFR3): 15 nM | ΔTV (%) lenvatinib (mg/kg) 1 [10, 20]: 43.8* % | ΔTV (%) lenvatinib (mg/kg) 3 [10, 21]: 23.1* % | ΔTV (%) lenvatinib (mg/kg) 10 [10, 22]: 12.8* % | ΔTV (%) lenvatinib (mg/kg) 30 [10, 23]: -4.5* % | ΔTV (%) lenvatinib (mg/kg) 100 [10, 24]: -21.3* % | Ki (VEGFR1 (FLT1)): 1.3 nM | Ki (VEGFR3 (FLT4)): 0.71 nM | IC50 (HUVECs [11]): 2.7 nM | IC50 (H460 (Lung)): 26300 nM

CNC(=O)c1cc(Oc2ccc(NC(=O)Nc3ccc(Cl)c(C(F)(F)F)c3)cc2)ccn1 [sorafenib, reference compound]
Antiangiogenic activity, KP-1/VEGF DAS model [12]: selective antiangiogenic activity | Inhibition of FGF-driven in vivo angiogenesis, KP-1/FGF DAS assay [13]: did not inhibit | IC50 [14]: 2000 nM
